Here are results for five compounds from PMC4807864 (The Journal of antibiotics, 2013).

Where a name gives a salt, the structure may show the parent alone.

One experiment has as its target T1, human PPTase (hPPTase) (Homo sapiens, UniProt Q9NRN7).
T1 sequence (Q9NRN7 1-309): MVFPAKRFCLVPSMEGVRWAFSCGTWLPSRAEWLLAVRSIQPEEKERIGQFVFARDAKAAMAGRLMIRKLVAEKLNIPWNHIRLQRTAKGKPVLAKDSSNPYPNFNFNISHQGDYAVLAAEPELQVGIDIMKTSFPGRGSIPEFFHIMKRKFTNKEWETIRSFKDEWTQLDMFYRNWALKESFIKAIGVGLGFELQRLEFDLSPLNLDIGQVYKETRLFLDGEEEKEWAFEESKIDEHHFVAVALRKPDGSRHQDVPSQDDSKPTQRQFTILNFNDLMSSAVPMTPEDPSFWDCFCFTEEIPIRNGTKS
Kind of experiment: Fluorescence polarization phosphopantetheinylation assay. The class given is biochemical.
Conditions: not given
By IC50 is commonly meant the concentration that gives 50% inhibition. High values mean lower potency, low ones higher potency. `NC(CO)C(=O)NNCc1ccc(O)c(O)c1O` (stereo not drawn) [benserazide HCl, benserazide] registered an IC50 of more than 100 µM.
`CC(C)(COP(=O)(O)OP(=O)(O)OC[C@H]1O[C@@H](n2cnc3c(N)ncnc32)[C@H](O)[C@@H]1OP(=O)(O)O)[C@@H](O)C(=O)NCCC(=O)NCCS` [coenzyme A] had an IC50 of 14 ± 1 µM.
Still for that read-out and setting: in the case of `C[n+]1cc2c3c(ccc2c2ccc4cc5c(cc4c21)OCO5)OCO3` [sanguinarine Cl, sanguinarine] it was more than 100 µM.

For the next experiment, the target named is Sfp (Bacillus subtilis, UniProt P39135). Kind of experiment: SDS-PAGE fluorescent carrier protein labeling follow-up. It counts as biochemical, B. subtilis. The note with it: gel analysis (Figure S22).
Chain of Sfp (P39135 whole entry): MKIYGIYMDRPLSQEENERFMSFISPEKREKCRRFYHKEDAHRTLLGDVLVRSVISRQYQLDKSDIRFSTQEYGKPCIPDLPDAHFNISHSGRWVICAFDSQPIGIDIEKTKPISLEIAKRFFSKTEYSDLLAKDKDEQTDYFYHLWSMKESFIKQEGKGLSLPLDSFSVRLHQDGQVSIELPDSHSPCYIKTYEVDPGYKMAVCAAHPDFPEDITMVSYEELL
Consider `CC(C)(C)c1ccc(S(=O)(=O)/C=C/C#N)cc1` [Bay 11-7085], for which the “Effect on fluorescent labeling of the carrier protein substrate by SDS-PAGE” value is reported as “increase fluorescent labeling”.
The same measure, in the same setting: in the case of `NC(N)=Nc1ccc2[nH]c3c(c2c1)C[C@@]1(O)[C@H]2Cc4ccc(O)c5c4[C@@]1(CCN2CC1CC1)[C@H]3O5.O=C(O)C(F)(F)F.O=C(O)C(F)(F)F` [guanidinyl-naltrindole] it was “increase fluorescent labeling”.
The same measure, in the same setting: then `C[n+]1cc2c3c(ccc2c2ccc4cc5c(cc4c21)OCO5)OCO3` [sanguinarine Cl, sanguinarine], with “inhibitory behavior”.
